In paper PMC11969438 (Inorganic Chemistry Frontiers, 2025):

Legend:
THP1-Dual cells [1] = experiment: Western blot analysis of STING downstream pathway, DNA damage and cell death markers; assay type: cell-based, human; details: 24 h
Method: The THP1-Dual cell model was seeded at 1 × 10^6 cells per well in six-well plates. After 24 h of recovery, the compounds were applied at the concentrations indicated. After 24 h of drug exposure, whole-cell protein isolation was performed as described previously.[14] Sodium dodecyl sulfate polyacrylamide gel electrophoresis was performed. Proteins were transferred onto polyvinylidene difluoride membranes (Thermo Scientific, Waltham, MA, USA). Antibodies targeting STING (##13 647; 1 : 1000), phospho-STING (#19 781; 1 : 500), TBK1 (#3504; 1 : 500), IRF-3 (#4302; 1 : 500), phospho-p65 (#3033; 1 : 500), ISG15 (#2743; 1 : 1000), caspase-3 (#9665; 1 : 1000), cleaved caspase-3 (#9661; 1 : 1000), PARP (#9532; 1 : 1000), and cleaved PARP (#9541; 1 : 1000) were purchased from Cell Signaling Technology (Danvers, MA, USA). The p65 antibody (#sc-372; 1 : 1000) was purchased from Santa Cruz and the phospho-H2A.X antibody (#05-636-I; 1 : 500) was obtained from Merck (Darmstadt, Germany). The anti-β-actin (#5441; 1 : 2000) antibody was obtained from Sigma-Aldrich. The anti-mouse IgG (#A0168; 1 : 10 000) horseradish peroxidase (HRP)-coupled secondary antibody was purchased from Sigma-Aldrich, and the anti-rabbit IgG (#7074; 1 : 5000) HRP-linked secondary antibody was obtained from Cell Signaling Technology.

[2] = Platinum distribution study in vivo by ICP-MS; parameters: species or system CT-26 tumor-bearing BALB/c mice; details: i.v., 24 h after second dose; for serum platinum levels: two doses
Method: (§1) Tumor size was determined daily via manual caliper measurement. […] Animals were euthanized via cervical dislocation.
The generation and treatment of tumor-bearing mice are outlined in the section “In vivo syngraft experiments” described above. Mouse tissues were processed as described previously.[13] Briefly, serum was isolated from peripheral blood by centrifugation (900g, 10 min, 4 °C, twice). Tissues were digested in 20% nitric acid and hydrogen peroxide using an open-vessel graphite digestion system. The platinum concentration was determined by ICP-MS analysis; for details see “Intracellular platinum accumulation in vitro by ICP-MS”.

[3] = system: immune cell populations in tumor and spleen; experiment: Immune activation and infiltration by flow cytometry; assay type: in vivo, CT-26-bearing BALB/c mice; details: 24 h after second dose
Method: as §1
The generation and treatment of tumor-bearing mice are outlined in the section “In vivo syngraft experiments” above. Samples were kept on ice during the whole procedure. Tissues were prepared as described previously.[55] In brief, tumor and spleen tissues were collected and mechanically dissociated in DPBS buffer containing Ca^2+/Mg^2+ and FCS (5%). Tumor samples were digested using collagenase VIII (1 mg mL^−1) in a DPBS buffer (without Ca^2+/Mg^2+) supplemented with DNAse I (1 mg mL^−1) for 15 min at 37 °C under constant shaking. Samples were filtered using 70 μm cell strainers in a DPBS buffer (without Ca^2+/Mg^2+) containing FCS (5%), EDTA (5 mM) and DNase I (20 μg mL^−1). Subsequent washing steps were performed in DPBS buffer (without Ca^2+/Mg^2+) containing FCS (5%), EDTA (5 mM) and DNase I (20 μg mL^−1), unless indicated otherwise. Red blood cells were removed by short incubation with ACK buffer. For blocking, samples were incubated with the Ultra-LEAF purified anti-mouse CD16/CD32 antibody (clone: 93; #101330; RRID:AB_2783037; dilution: 1 : 1000) (Biolegend, San Diego, CA, USA) in the BD Horizon Brilliant Stain Buffer (#563794; BD Biosciences) for 10 min. Next, the samples were incubated with an antibody mixture in the BD Horizon Brilliant Stain Buffer for 30 min. Fluorescent dye-labeled antibodies targeting murine CD3 (17A2; #100203; RRID:AB_312661; 1 : 50), CD8a (53-6.7; #100738; RRID:AB_11204079; 1 : 160), CD19 (6D5; #115528; RRID:AB_493735; 1 : 400), CD49b (DX5; #108924; RRID:AB_2565271; 1 : 229), CD11b (M1/70; #101228; RRID:AB_893232; 1 : 80), and CD69 (H1.2F3; # 104512; RRID:AB_493564; 1 : 40) were purchased from BioLegend. The antibody targeting murine CD4 (RM4-5; # 85-0042-U100; 1 : 80) and the viability dye Ghost Dye Red 780 (#13-0865-T100; 1 : 1000) were purchased from Tonbobio (San Diego, CA, USA). The antibody targeting CD45 (30-F11; #363-0451-82; RRID:AB_2925264; 1 : 80) was purchased from Life Tech (Invitrogen). For intracellular staining of granzyme B (GzmB) (QA16A02; #372208; RRID:AB_2687032; 1 : 20) and FoxP3 (MF-14; #320014; RRID:AB_439750; 1 : 100) the True-Nuclear Transcription Factor Buffer Set (Biolegend; #424401) was used according to the manufacturer's recommendations. In brief, samples were incubated with Perm Fix Solution for 60 min at RT. Next, the samples were stained with antibodies targeting GzmB and FoxP3 (diluted in Perm buffer) for 30 min at RT. […] Next day, the samples were analyzed using a Cytek Aurora 5L (Cytek Biosciences, CA, USA) spectral flow cytometer. Data were analyzed using SpectroFlo (v3.2.1) (Cytek Biosciences) and FlowJo (v10.8.1) (FlowJo LLC, Ashland, OR, USA) software.

THP1-Dual cells [4] = experiment: Intracellular platinum accumulation in vitro by ICP-MS; assay type: cell-based, human; details: 3 h exposure; for cellular platinum accumulation: compared to oxaliplatin
Method: The THP1-Dual cell model was seeded at 1 × 10^6 cells per well in six-well plates. After 24 h of recovery, the compounds were applied at the concentrations indicated in triplicate. After 3 h of drug exposure, the cells were prepared as published previously.[13] […] The lysate was filled up to 8 mL with water. The platinum concentration was determined by ICP-MS analysis. Platinum and rhenium standards were derived from CPI International (Amsterdam, the Netherlands). The total platinum content was determined with an Agilent 7800 quadrupole-based ICP-MS instrument (Agilent Technologies, Tokyo, Japan) equipped with an Agilent SPS 4 autosampler (Agilent Technologies, Tokyo, Japan) and a MicroMist nebulizer at a sample uptake rate of approximately 0.2 mL min^−1. […] Argon was used as a plasma gas (15 L min^−1) and as a carrier gas (∼1.1 L min^−1). The dwell time was set to 0.1 s and the measurements were performed in 12 replicates with 100 sweeps. Rhenium served as an internal standard for platinum.

## COCCOCCOCCOCCNC(=O)[O][Pt-2]12([O]C(=O)CCC(=O)c3cc4cc(OC)c(OC)cc4s3)([NH2+][C@@H]3CCCC[C@H]3[NH2+]1)[O]C(=O)C(=O)[O]2 [Ox-MSA-PEG-Ca, (OC-6-34)-[(1R,2R)-1,2-cyclohexanediamino]-oxalato-[4-(5,6-dimethoxybenzo[b]thiophen-2-yl)-4-oxobutylcarboxylato]-[3,6,9,12-tetraoxatridecan-1-amino]platinum(IV)]
THP1-Dual cells [1]
  DNA damage (p-H2A.X upregulation, cleavage of caspase-3 and PARP): induced DNA damage
  induction of ISG15: triggered
[2]; two doses equimolar to 9 mg kg^−1 oxaliplatin
  liver platinum level relative to tumor: 9.7 fold
[2]
  serum platinum levels: Low serum platinum levels
[3]
  FoxP3+ CD4+ T cell compartment in the spleen: selectively elevated

## COCCOCCOCCOCCC(=O)[O][Pt-2]12([O]C(=O)CCC(=O)c3cc4cc(OC)c(OC)cc4s3)([NH2+][C@@H]3CCCC[C@H]3[NH2+]1)[O]C(=O)C(=O)[O]2 [Ox-MSA-PEG-Es, (OC-6-44)-[(1R,2R)-1,2-cyclohexanediamino]-oxalato-[4-(5,6-dimethoxybenzo[b]thiophen-2-yl)-4-oxobutylcarboxylato]-[2,5,8,11-tetraoxatetradecanoato]platinum(IV)]
THP1-Dual cells [4]; 10 μM
  cellular platinum content vs oxaliplatin: significantly higher platinum content
THP1-Dual cells [4]; 50 μM, without statistical significance
  intracellular platinum levels vs oxaliplatin: lower intracellular platinum levels
THP1-Dual cells [4]
  cellular platinum accumulation: did not show a comparable amount of platinum hyper-accumulation
THP1-Dual cells [1]
  DNA damage (p-H2A.X upregulation, cleavage of caspase-3 and PARP): induced DNA damage

## O=C1[O][Pt]2([NH][C@@H]3CCCC[C@H]3[NH]2)[O]C1=O [oxaliplatin, reference compound]
THP1-Dual cells [4]
  cellular platinum accumulation: accumulated dose-dependently
[2]
  serum platinum levels: Low serum platinum levels
[3]
  CD45+ cells among viable splenic cells: significantly upregulated
  splenic CD8+ T cells in the CD45+ cell population: strongest effect
